# Measured values published in PubChem BioAssay (NCI).
#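 Protocol summary: plate cells (96-well), add compound at 5 concentrations, incubate 48 h, interpolate endpoints linearly. TGI is the concentration that stops growth completely.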
# Columns and labels:
# Assay in all cases: NCI-60 cell line screen, 48 h
# 786-0 renal = system: 786-0 renal
# A498 renal = system: A498 renal
# A549 NSCLC = system: A549 NSCLC
# ACHN renal = system: ACHN renal
# CAKI-1 renal = system: CAKI-1 renal
# CCRF-CEM leukemia = system: CCRF-CEM leukemia
# COLO 205 colon = system: COLO 205 colon
# DU-145 prostate = system: DU-145 prostate
# EKVX NSCLC = system: EKVX NSCLC
# HCC-2998 colon = system: HCC-2998 colon
# HCT-116 colon = system: HCT-116 colon
# HCT-15 colon = system: HCT-15 colon
# HL-60(TB) leukemia = system: HL-60(TB) leukemia
# HOP-62 NSCLC = system: HOP-62 NSCLC
# HOP-92 NSCLC = system: HOP-92 NSCLC
# HS 578T breast = system: HS 578T breast
# HT29 colon = system: HT29 colon
# IGROV1 ovarian = system: IGROV1 ovarian
# K-562 leukemia = system: K-562 leukemia
# KM12 colon = system: KM12 colon
# LOX IMVI melanoma = system: LOX IMVI melanoma
# M14 melanoma = system: M14 melanoma
# MALME-3M melanoma = system: MALME-3M melanoma
# MCF7 breast = system: MCF7 breast
# MDA-MB-231 breast = system: MDA-MB-231 breast
# MDA-MB-435 = system: MDA-MB-435
# MDA-N = system: MDA-N
# MOLT-4 leukemia = system: MOLT-4 leukemia
# NCI-H226 lung = system: NCI-H226 lung
# NCI-H23 lung = system: NCI-H23 lung
# NCI-H460 lung = system: NCI-H460 lung
# NCI/ADR-RES ovarian = system: NCI/ADR-RES ovarian
# OVCAR-3 ovarian = system: OVCAR-3 ovarian
# OVCAR-4 ovarian = system: OVCAR-4 ovarian
# OVCAR-5 ovarian = system: OVCAR-5 ovarian
# OVCAR-8 ovarian = system: OVCAR-8 ovarian
# PC-3 prostate = system: PC-3 prostate
# RPMI-8226 leukemia = system: RPMI-8226 leukemia
# RXF 393 renal = system: RXF 393 renal
# SF-268 CNS = system: SF-268 CNS
# SF-295 CNS = system: SF-295 CNS
# SF-539 CNS = system: SF-539 CNS
# SK-MEL-2 melanoma = system: SK-MEL-2 melanoma
# SK-MEL-28 melanoma = system: SK-MEL-28 melanoma
# SK-OV-3 ovarian = system: SK-OV-3 ovarian
# SN12C renal = system: SN12C renal
# SNB-19 CNS = system: SNB-19 CNS
# SNB-75 CNS = system: SNB-75 CNS
# SR leukemia = system: SR leukemia
# SW-620 colon = system: SW-620 colon
# T-47D breast = system: T-47D breast
# TK-10 renal = system: TK-10 renal
# U251 CNS = system: U251 CNS
# UACC-257 melanoma = system: UACC-257 melanoma
# UACC-62 melanoma = system: UACC-62 melanoma
# UO-31 renal = system: UO-31 renal
# BT-549 breast = system: BT-549 breast
# NCI-H522 lung = system: NCI-H522 lung
# SK-MEL-5 melanoma = system: SK-MEL-5 melanoma
structure (smiles),measurement,setting,value
Cc1ccc(Cl)c2c(N=Nc3ccccc3[N+](=O)[O-])c(O)[nH]c12,TGI,786-0 renal,> 100 µM
same,TGI,A498 renal,> 100 µM
same,TGI,A549 NSCLC,> 100 µM
same,TGI,ACHN renal,> 100 µM
same,TGI,CAKI-1 renal,> 100 µM
same,TGI,CCRF-CEM leukemia,> 100 µM
same,TGI,COLO 205 colon,> 100 µM
same,TGI,DU-145 prostate,> 100 µM
same,TGI,EKVX NSCLC,> 100 µM
same,TGI,HCC-2998 colon,> 100 µM
same,TGI,HCT-116 colon,> 100 µM
same,TGI,HCT-15 colon,> 100 µM
same,TGI,HL-60(TB) leukemia,> 100 µM
same,TGI,HOP-62 NSCLC,> 100 µM
same,TGI,HOP-92 NSCLC,> 100 µM
same,TGI,HS 578T breast,70.2 µM
same,TGI,HT29 colon,> 100 µM
same,TGI,IGROV1 ovarian,> 100 µM
same,TGI,K-562 leukemia,> 100 µM
same,TGI,KM12 colon,> 100 µM
same,TGI,LOX IMVI melanoma,> 100 µM
same,TGI,M14 melanoma,> 100 µM
same,TGI,MALME-3M melanoma,> 100 µM
same,TGI,MCF7 breast,> 100 µM
same,TGI,MDA-MB-231 breast,> 100 µM
same,TGI,MDA-MB-435,35.3 µM
same,TGI,MDA-N,> 100 µM
same,TGI,MOLT-4 leukemia,> 100 µM
same,TGI,NCI-H226 lung,> 100 µM
same,TGI,NCI-H23 lung,> 100 µM
same,TGI,NCI-H460 lung,> 100 µM
same,TGI,NCI/ADR-RES ovarian,> 100 µM
same,TGI,OVCAR-3 ovarian,> 100 µM
same,TGI,OVCAR-4 ovarian,> 100 µM
same,TGI,OVCAR-5 ovarian,> 100 µM
same,TGI,OVCAR-8 ovarian,> 100 µM
same,TGI,PC-3 prostate,> 100 µM
same,TGI,RPMI-8226 leukemia,> 100 µM
same,TGI,RXF 393 renal,> 100 µM
same,TGI,SF-268 CNS,> 100 µM
same,TGI,SF-295 CNS,> 100 µM
same,TGI,SF-539 CNS,48.6 µM
same,TGI,SK-MEL-2 melanoma,> 100 µM
same,TGI,SK-MEL-28 melanoma,> 100 µM
same,TGI,SK-OV-3 ovarian,> 100 µM
same,TGI,SN12C renal,> 100 µM
same,TGI,SNB-19 CNS,> 100 µM
same,TGI,SNB-75 CNS,> 100 µM
same,TGI,SR leukemia,> 100 µM
same,TGI,SW-620 colon,> 100 µM
same,TGI,T-47D breast,> 100 µM
same,TGI,TK-10 renal,> 100 µM
same,TGI,U251 CNS,> 100 µM
same,TGI,UACC-257 melanoma,> 100 µM
same,TGI,UACC-62 melanoma,> 100 µM
same,TGI,UO-31 renal,> 100 µM
Nc1c2c(nc3ccccc13)-c1ccccc1CC2,TGI,786-0 renal,14.1 µM
same,TGI,A498 renal,16.2 µM
same,TGI,ACHN renal,14.1 µM
same,TGI,BT-549 breast,27 µM
same,TGI,CCRF-CEM leukemia,18.9 µM
same,TGI,COLO 205 colon,15.8 µM
same,TGI,HCC-2998 colon,2.81 µM
same,TGI,HCT-116 colon,13.5 µM
same,TGI,HCT-15 colon,17.5 µM
same,TGI,HL-60(TB) leukemia,14.5 µM
same,TGI,HOP-92 NSCLC,21.9 µM
same,TGI,HS 578T breast,40.5 µM
same,TGI,IGROV1 ovarian,19.8 µM
same,TGI,K-562 leukemia,17.3 µM
same,TGI,LOX IMVI melanoma,15.5 µM
same,TGI,MALME-3M melanoma,20.8 µM
same,TGI,MCF7 breast,13.8 µM
same,TGI,MDA-MB-231 breast,17.8 µM
same,TGI,MDA-N,16 µM
same,TGI,MOLT-4 leukemia,9.23 µM
same,TGI,NCI-H226 lung,31.5 µM
same,TGI,NCI-H23 lung,27.2 µM
same,TGI,NCI-H460 lung,6.22 µM
same,TGI,NCI-H522 lung,24.5 µM
same,TGI,NCI/ADR-RES ovarian,27.8 µM
same,TGI,OVCAR-8 ovarian,18 µM
same,TGI,PC-3 prostate,14.4 µM
same,TGI,RPMI-8226 leukemia,21.7 µM
same,TGI,SF-268 CNS,22.3 µM
same,TGI,SF-539 CNS,15.1 µM
same,TGI,SK-MEL-2 melanoma,23 µM
same,TGI,SK-MEL-28 melanoma,22.8 µM
same,TGI,SK-MEL-5 melanoma,15.3 µM
same,TGI,SN12C renal,16.9 µM
same,TGI,SR leukemia,9.31 µM
same,TGI,SW-620 colon,14.8 µM
same,TGI,TK-10 renal,14.7 µM
same,TGI,U251 CNS,15.8 µM
same,TGI,UACC-257 melanoma,9.09 µM
same,TGI,UACC-62 melanoma,21.4 µM
